Data: patent US12077503B2, “Substituted cyclic amides and their use as herbicides” (FMC CORPORATION, priority 2015, dated 2024)
Read-outs that look alike come from different tables or passages of the source.

Tests used:
Type in all cases: in vivo
[1] = test system: barnyardgrass (Echinochloa crus-galli); test: Test B flooded paddy test; conditions: Echinochloa crus-galli, Flood, 250 g ai/ha; scale of 0 to 100 where 0 is no effect and 100 is complete control; read-out: Barnyardgrass plant response rating
Summary of the method: (§1)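 Evaluation by eye, against controls, occurred 13–15 d post-treatment in a greenhouse, using a 0 (no effect) to 100 (complete control) scale. Application was into the paddy water, 3 cm deep over the soil, on 2-leaf plants.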

[2] = test system: rice (Oryra sativa); test: Test B flooded paddy test; conditions: Oryza sativa, Flood, 250 g ai/ha; scale of 0 to 100 where 0 is no effect and 100 is complete control; read-out: Rice plant response rating
Summary of the method: as §1

[3] = test system: sedge, umbrella (small-flower umbrella sedge, Cyperus difformis); test: Test B flooded paddy test; conditions: Cyperus difformis, Flood, 250 g ai/ha; scale of 0 to 100 where 0 is no effect and 100 is complete control; read-out: Sedge, Umbrella plant response rating
Summary of the method: as §1

[4] = test system: ducksalad (Heteranthera limosa); test: Test B flooded paddy test; conditions: Heteranthera limosa, Flood, 250 g ai/ha; scale of 0 to 100 where 0 is no effect and 100 is complete control; read-out: Ducksalad plant response rating
Summary of the method: as §1

[5] = test system: pigweed (Amaranthus retroflexus); test: Test A preemergence; conditions: Amaranthus retroflexus, pre-emergence, 240 h, preemergence; for pest or weed control at 125 g/ha: 125 g ai/ha, 0 to 100 scale where 0 is no effect and 100 is complete control; for pest or weed control at 500 g/ha: 500 g ai/ha
[6] = test system: barnyardgrass (Echinochloa crus-galli); test: Test A preemergence; conditions: Echinochloa crus-galli, pre-emergence, 240 h, preemergence; for pest or weed control at 125 g/ha: 125 g ai/ha, 0 to 100 scale where 0 is no effect and 100 is complete control; for pest or weed control at 500 g/ha: 500 g ai/ha
Summary of the method: (§2)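 Seeds sprayed preemergence with a directed soil spray, or plants at 2 to 10 cm height and one- to two-leaf stage sprayed postemergence, with test chemicals in a non-phytotoxic solvent mixture containing surfactant, in loam soil–sand blend. Injury rated visually against untreated controls after about 10 d in greenhouse, 0 (no effect) to 100 (complete control).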

[7] = test system: Kochia (Kochia scoparia); test: Test A preemergence; conditions: Bassia scoparia, pre-emergence, 240 h, preemergence; for pest or weed control at 125 g/ha: 125 g ai/ha, 0 to 100 scale where 0 is no effect and 100 is complete control; for pest or weed control at 500 g/ha: 500 g ai/ha
Summary of the method: as §2

[8] = test system: ragweed (common ragweed, Ambrosia elatior); test: Test A preemergence; conditions: Ambrosia artemisiifolia, pre-emergence, 240 h, preemergence; for pest or weed control at 125 g/ha: 125 g ai/ha, 0 to 100 scale where 0 is no effect and 100 is complete control; for pest or weed control at 500 g/ha: 500 g ai/ha
Summary of the method: as §2

[9] = test system: ryegrass, Italian (Italian ryegrass, Lolium multiflorum); test: Test A preemergence; conditions: Lolium multiflorum, pre-emergence, 240 h, preemergence; for pest or weed control at 125 g/ha: 125 g ai/ha, 0 to 100 scale where 0 is no effect and 100 is complete control
Summary of the method: as §2

[10] = test system: giant foxtail (Setaria faberii); test: Test A preemergence; conditions: Setaria faberi, pre-emergence, 240 h, preemergence; for pest or weed control at 125 g/ha: 125 g ai/ha, 0 to 100 scale where 0 is no effect and 100 is complete control; for pest or weed control at 500 g/ha: 500 g ai/ha
Summary of the method: as §2

[11] = test system: pigweed (Amaranthus retroflexus); test: Test A postemergence; conditions: Amaranthus retroflexus, post-emergence, 240 h, 125 g ai/ha, visual injury after approximately 10 d, read-out: Plant response rating, Pigweed
Summary of the method: as §2

[12] = test system: blackgrass (Alopecurus myosuroides); test: Test A postemergence; conditions: Alopecurus myosuroides, post-emergence, 240 h, 125 g ai/ha, visual injury after approximately 10 d, read-out: Plant response rating, Blackgrass
Summary of the method: as §2

[13] = test system: wheat (Triticum aestivum); test: Test A postemergence; conditions: Triticum aestivum, post-emergence, 240 h, 125 g ai/ha, visual injury after approximately 10 d, read-out: Plant response rating, Wheat
Summary of the method: as §2

[14] = test system: ryegrass, Italian (Italian ryegrass, Lolium multiflorum); test: Test A postemergence; conditions: Lolium multiflorum, post-emergence, 240 h, 125 g ai/ha, visual injury after approximately 10 d, read-out: Plant response rating, Ryegrass, Italian
Summary of the method: as §2

[15] = test system: giant foxtail (Setaria faberii); test: Test A postemergence; conditions: Setaria faberi, post-emergence, 240 h, 125 g ai/ha, visual injury after approximately 10 d, read-out: Plant response rating, Foxtail, Giant
Summary of the method: as §2

[16] = postemergence, 0 to 100 scale (0 no effect, 100 complete control)
[17] = Postemergence, 0 to 100 scale where 0 is no effect and 100 is complete control

CCc1ccc([C@H]2CNC(=S)[C@@H]2C(=O)Nc2cccc(F)c2C)cc1 [Compound 761]
pest or weed control at 250 g/ha [1]: 0%
pest or weed control at 250 g/ha [2]: 0%
pest or weed control at 250 g/ha [3]: 0%
pest or weed control at 250 g/ha [4]: 95%
pest or weed control at 125 g/ha ([5]; visual rating after approx. 10 d, read-out: Plant response rating, Pigweed): 0%
pest or weed control at 500 g/ha ([5]; 0 to 100 scale, 0 = no effect, 100 = complete control, read-out: Plant response rating, Pigweed): 0%
pest or weed control at 125 g/ha ([6]; visual rating after approx. 10 d, read-out: Plant response rating, Barnyardgrass): 90%
pest or weed control at 500 g/ha ([6]; 0 to 100 scale, 0 = no effect, 100 = complete control, read-out: Plant response rating, Barnyardgrass): 100%
pest or weed control at 125 g/ha ([7]; visual rating after approx. 10 d, read-out: Plant response rating, Kochia): 30%
pest or weed control at 500 g/ha ([7]; 0 to 100 scale, 0 = no effect, 100 = complete control, read-out: Plant response rating, Kochia): 80%
pest or weed control at 125 g/ha ([8]; visual rating after approx. 10 d, read-out: Plant response rating, Ragweed): 0%
pest or weed control at 500 g/ha ([8]; 0 to 100 scale, 0 = no effect, 100 = complete control, read-out: Plant response rating, Ragweed): 0%
pest or weed control at 125 g/ha ([9]; visual rating after approx. 10 d, read-out: Plant response rating, Ryegrass, Italian): 0%
pest or weed control at 125 g/ha ([10]; visual rating after approx. 10 d, read-out: Plant response rating, Foxtail, Giant): 60%
pest or weed control at 500 g/ha ([10]; 0 to 100 scale, 0 = no effect, 100 = complete control, read-out: Plant response rating, Foxtail, Giant): 90%
pest or weed control at 125 g/ha [11, 16]: 0%
pest or weed control at 125 g/ha [12, 16]: 0%
plant injury at 125 g/ha [13, 16]: 0%
pest or weed control at 125 g/ha [14, 16]: 0%
pest or weed control at 125 g/ha [15, 16]: 60%

CS(=O)(=O)c1ccccc1NC(=O)[C@H]1C(=O)N(C2CC2)CC[C@@H]1c1cccc(C(F)(F)F)c1 [Compound 927]
pest or weed control at 250 g/ha [1]: 0%
pest or weed control at 250 g/ha [2]: 0%
pest or weed control at 250 g/ha [3]: 0%
pest or weed control at 250 g/ha [4]: 0%
pest or weed control at 125 g/ha ([5]; read-out: Pigweed plant response rating): 0%
pest or weed control at 500 g/ha ([5]; visual injury rating about 10 d after treatment, 0 to 100 scale (0 no effect, 100 complete control), read-out: Pigweed plant response rating): 0%
pest or weed control at 125 g/ha ([6]; read-out: Barnyardgrass plant response rating): 0%
pest or weed control at 500 g/ha ([6]; visual injury rating about 10 d after treatment, 0 to 100 scale (0 no effect, 100 complete control), read-out: Barnyardgrass plant response rating): 70%
pest or weed control at 125 g/ha ([7]; read-out: Kochia plant response rating): 0%
pest or weed control at 500 g/ha ([7]; visual injury rating about 10 d after treatment, 0 to 100 scale (0 no effect, 100 complete control), read-out: Kochia plant response rating): 0%
pest or weed control at 125 g/ha ([8]; read-out: Ragweed plant response rating): 0%
pest or weed control at 500 g/ha ([8]; visual injury rating about 10 d after treatment, 0 to 100 scale (0 no effect, 100 complete control), read-out: Ragweed plant response rating): 0%
pest or weed control at 125 g/ha ([9]; read-out: Ryegrass, Italian plant response rating): 0%
pest or weed control at 500 g/ha ([9]; 500 g ai/ha, visual injury rating about 10 d after treatment, 0 to 100 scale (0 no effect, 100 complete control), read-out: Ryegrass, Italian plant response rating): 0%
pest or weed control at 125 g/ha ([10]; read-out: Foxtail, Giant plant response rating): 0%
pest or weed control at 500 g/ha ([10]; visual injury rating about 10 d after treatment, 0 to 100 scale (0 no effect, 100 complete control), read-out: Foxtail, Giant plant response rating): 70%
pest or weed control at 125 g/ha [11, 17]: 0%
pest or weed control at 125 g/ha [12, 17]: 0%
plant injury at 125 g/ha [13, 17]: 0%
pest or weed control at 125 g/ha [14, 17]: 0%
pest or weed control at 125 g/ha [15, 17]: 0%
